Conditions: Hot wire method

FC(F)(F)/C=C/Cl [(E)-1-chloro-3,3,3-trifluoroprop-1-ene]
Conditions	thermal conductivity [W/m/K]
423.65 K, 7612 kPa, Liquid	0.05622
423.65 K, 7619 kPa, Liquid	0.05627
423.65 K, 22720 kPa, Liquid	0.06706
423.66 K, 22716 kPa, Liquid	0.06723
423.67 K, 28114 kPa, Liquid	0.07024
423.69 K, 28097 kPa, Liquid	0.07022
423.72 K, 13391 kPa, Liquid	0.0611
423.72 K, 13398 kPa, Liquid	0.06111
423.77 K, 20045 kPa, Liquid	0.06561
423.77 K, 20052 kPa, Liquid	0.06562
423.78 K, 11664 kPa, Liquid	0.05978
423.79 K, 11674 kPa, Liquid	0.05981
423.83 K, 25690 kPa, Liquid	0.06889
423.84 K, 25696 kPa, Liquid	0.06888
423.85 K, 10139 kPa, Liquid	0.05851
423.86 K, 10145 kPa, Liquid	0.05848
423.86 K, 17471 kPa, Liquid	0.06395
423.87 K, 17475 kPa, Liquid	0.06396
423.93 K, 15376 kPa, Liquid	0.06253
423.93 K, 15379 kPa, Liquid	0.06254
423.94 K, 22691 kPa, Liquid	0.06716
423.95 K, 22710 kPa, Liquid	0.06724
424.02 K, 13386 kPa, Liquid	0.06109
424.02 K, 13393 kPa, Liquid	0.06113
451.03 K, 4240 kPa, Fluid (supercritical or subcritical phases)	0.04303
451.04 K, 4194 kPa, Fluid (supercritical or subcritical phases)	0.04141
451.04 K, 4285 kPa, Fluid (supercritical or subcritical phases)	0.0443
451.05 K, 4194 kPa, Fluid (supercritical or subcritical phases)	0.04138
451.05 K, 4285 kPa, Fluid (supercritical or subcritical phases)	0.04428
451.1 K, 4194 kPa, Fluid (supercritical or subcritical phases)	0.0413
451.11 K, 4329 kPa, Fluid (supercritical or subcritical phases)	0.04555
451.12 K, 4329 kPa, Fluid (supercritical or subcritical phases)	0.04569
451.13 K, 4146 kPa, Fluid (supercritical or subcritical phases)	0.03927
451.14 K, 4146 kPa, Fluid (supercritical or subcritical phases)	0.03925
451.15 K, 4091 kPa, Fluid (supercritical or subcritical phases)	0.03775
451.19 K, 4240 kPa, Fluid (supercritical or subcritical phases)	0.0441
451.2 K, 4146 kPa, Fluid (supercritical or subcritical phases)	0.03962
451.2 K, 4240 kPa, Fluid (supercritical or subcritical phases)	0.04407
451.21 K, 4024 kPa, Fluid (supercritical or subcritical phases)	0.03539
451.21 K, 4146 kPa, Fluid (supercritical or subcritical phases)	0.03961
451.21 K, 4329 kPa, Fluid (supercritical or subcritical phases)	0.0465
451.22 K, 4091 kPa, Fluid (supercritical or subcritical phases)	0.03768
451.22 K, 4285 kPa, Fluid (supercritical or subcritical phases)	0.04586
451.22 K, 4329 kPa, Fluid (supercritical or subcritical phases)	0.04642
451.24 K, 4335 kPa, Fluid (supercritical or subcritical phases)	0.04596
451.24 K, 4404 kPa, Fluid (supercritical or subcritical phases)	0.04602
451.25 K, 4146 kPa, Fluid (supercritical or subcritical phases)	0.03998
451.25 K, 4335 kPa, Fluid (supercritical or subcritical phases)	0.04625
451.25 K, 4404 kPa, Fluid (supercritical or subcritical phases)	0.04634
451.26 K, 3939 kPa, Fluid (supercritical or subcritical phases)	0.03353
451.27 K, 4025 kPa, Fluid (supercritical or subcritical phases)	0.03578
451.28 K, 4024 kPa, Fluid (supercritical or subcritical phases)	0.03519
451.28 K, 4091 kPa, Fluid (supercritical or subcritical phases)	0.03788
451.29 K, 4090 kPa, Fluid (supercritical or subcritical phases)	0.0379
451.3 K, 4146 kPa, Fluid (supercritical or subcritical phases)	0.04026
451.31 K, 4146 kPa, Fluid (supercritical or subcritical phases)	0.04022
451.32 K, 3831 kPa, Fluid (supercritical or subcritical phases)	0.03175
451.35 K, 3691 kPa, Fluid (supercritical or subcritical phases)	0.02988
451.35 K, 4024 kPa, Fluid (supercritical or subcritical phases)	0.03573
451.35 K, 4025 kPa, Fluid (supercritical or subcritical phases)	0.03528
451.35 K, 4091 kPa, Fluid (supercritical or subcritical phases)	0.0383
451.36 K, 3691 kPa, Fluid (supercritical or subcritical phases)	0.02992
451.36 K, 4091 kPa, Fluid (supercritical or subcritical phases)	0.03832
451.37 K, 4404 kPa, Fluid (supercritical or subcritical phases)	0.04741
451.38 K, 3649 kPa, Fluid (supercritical or subcritical phases)	0.02977
451.39 K, 3831 kPa, Fluid (supercritical or subcritical phases)	0.03167
451.4 K, 3831 kPa, Fluid (supercritical or subcritical phases)	0.03184
451.41 K, 3939 kPa, Fluid (supercritical or subcritical phases)	0.03376
451.42 K, 3508 kPa, Fluid (supercritical or subcritical phases)	0.02833
451.43 K, 3509 kPa, Fluid (supercritical or subcritical phases)	0.02845
451.44 K, 3691 kPa, Fluid (supercritical or subcritical phases)	0.02982
451.44 K, 4090 kPa, Fluid (supercritical or subcritical phases)	0.03859

From the NIST ThermoML archive (doi:10.1021/acs.jced.7b00106)
